According to BindingDB's records for doi:10.1016/j.bmcl.2010.03.073 (Methylgene, 2010):

How the values were obtained:
[1] = Inhibition of c-Met-mediated cell migration of human A549 cells by would healing
[2] = Inhibition of c-Met-mediated scattering in HGF-stimulated human DU145 cells

IC50 [1]: 400 nM | IC50 [2]: 2000 nM
SMILES: Cn1cnc(-c2cc3nccc(Oc4ccc(NC(=O)c5cnn(-c6ccccc6)c5C(F)(F)F)cc4F)c3s2)c1 [N-(3-fluoro-4-(2-(1-methyl-1H-imidazol-4-yl)thieno[3,2-b]pyridin-7-yloxy)phenyl)-1-phenyl-5-(trifluoromethyl)-1H-pyrazole-4-carboxamide]
